Tests used:
[1] = Inhibition of SOAT1 in arterial homogenates isolated from 1% cholesterol fed New Zealand white rabbit assessed as reduction in cholesteryl oleate formation incubated for 5 mins in presence of [14C]-oleoyl-CoA and BSA complex by TLC method; assay type: tissue-based, Oryctolagus cuniculus
[2] = target: T1, Sterol O-acyltransferase 1 (Mus musculus, UniProt Q61263); assay: Inhibition of ACAT1 in mouse J774 cells assessed as reduction in esterified cholesterol accumulation after 18 hrs in presence of 25-hydroxycholesterol; assay type: cell-based
T1 sequence (Q61263 whole entry): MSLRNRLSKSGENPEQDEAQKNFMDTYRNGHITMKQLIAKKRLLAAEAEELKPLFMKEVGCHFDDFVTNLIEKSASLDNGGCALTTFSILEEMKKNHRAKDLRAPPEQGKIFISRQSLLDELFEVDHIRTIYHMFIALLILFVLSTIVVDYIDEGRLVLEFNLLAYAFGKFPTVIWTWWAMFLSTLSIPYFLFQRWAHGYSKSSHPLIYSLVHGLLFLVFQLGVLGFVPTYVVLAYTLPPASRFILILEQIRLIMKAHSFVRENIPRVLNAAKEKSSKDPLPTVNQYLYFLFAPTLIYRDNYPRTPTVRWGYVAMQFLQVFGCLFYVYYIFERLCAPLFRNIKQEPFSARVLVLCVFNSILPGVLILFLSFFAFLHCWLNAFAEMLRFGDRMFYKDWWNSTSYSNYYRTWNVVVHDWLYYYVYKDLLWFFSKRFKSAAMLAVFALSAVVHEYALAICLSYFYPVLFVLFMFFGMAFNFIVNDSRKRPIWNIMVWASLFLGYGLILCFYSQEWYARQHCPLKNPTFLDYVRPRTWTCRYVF

Oryctolagus cuniculus = species: Oryctolagus cuniculus; assay: Selectivity ratio of IC50 for inhibition of SOAT2 in New Zealand white rabbit intestinal microsomes to IC50 for inhibition of SOAT1 in arterial homogenates isolated from 1% cholesterol fed New Zealand white rabbit
[3] = Inhibition of SOAT2 in New Zealand white rabbit intestinal microsomes assessed as reduction in cholesteryl oleate formation incubated for 5 mins in presence of [14C]-oleoyl-CoA and BSA complex by TLC method; set-up: species or system Oryctolagus cuniculus, Intestine

Row | Structure (SMILES) | IC50 [1] [nM] | IC50 [2] [nM] | Ratio IC50 (Oryctolagus cuniculus) | IC50 [3] [nM]
1 | CSc1nc2ccccc2o1 | 31000 |  |  | 
2 | COC(=O)c1ccc2nc(SCCCCCC(=O)Nc3c(C(C)C)cccc3C(C)C)oc2c1 | 29 | 500 | 3.8 | 110
3 | CC(C)c1cccc(C(C)C)c1NC(=O)CCCCCSc1nc2cccc(C(=O)O)c2o1 |  | 11000 | 1 | 
4 | CC(C)c1cccc(C(C)C)c1NC(=O)CCCSc1nc2ccccc2o1 | 36 | 2800 |  | 
5 | CC(C)c1cccc(C(C)C)c1NC(=O)CCCCCSc1nc2ccc(CN(C)C)cc2o1 | 130 | 2400 | 2.8 | 370
6 | CC(C)c1cccc(C(C)C)c1NC(=O)CCCCCSc1nc2c(CO)cccc2o1 | 45 | 11000 | 4 | 180
7 | CC(C)c1cccc(C(C)C)c1NC(=O)CCCCCCSc1nc2ccccc2s1 | 7 | 410 | 4 | 28
8 | CC(C)c1cccc(C(C)C)c1NC(=O)CCCCCCCCSc1nc2ccccc2s1 | 4 | 43 | 4.5 | 18
9 | CC(C)c1cccc(C(C)C)c1NC(=O)CCCCCCSc1nc2ccccc2[nH]1 | 24 | 48 | 1.4 | 34
10 | CC(C)c1cccc(C(C)C)c1NC(=O)CCCCCCCCCSc1nc2ccccc2[nH]1 | 19 | 460 | 1.5 | 29
11 | CC(C)c1cccc(C(C)C)c1NC(=O)CCSc1nc2ccccc2s1 | 4 | 280 | 4.8 | 19
12 | CC(C)c1cccc(C(C)C)c1NC(=O)CCCCCSc1nc2c(O)cccc2o1 | 240 | 8800 | 1 | 240
13 | CC(C)c1cccc(C(C)C)c1NC(=O)CCCCCSc1nc2cc(CO)ccc2o1 | 64 | 1100 | 1.2 | 74
14 | COC(=O)c1ccc2oc(SCCCCCC(=O)Nc3c(C(C)C)cccc3C(C)C)nc2c1 | 70 |  | 3 | 210
15 | CC(C)c1cccc(C(C)C)c1NC(=O)CCCCCCCCSc1nc2ccccc2[nH]1 | 14 | 300 | 2.2 | 31
16 | CC(C)c1cccc(C(C)C)c1NC(=O)CCCCCSc1nc2ccc(C(=O)O)cc2o1 | 2100 | 4400 | 2.4 | 5000
17 | CC(C)c1cccc(C(C)C)c1NC(=O)CCCCCCCCCCCCCCSc1nc2ccccc2o1 | 40 | 410 | 1.1 | 44
18 | CC(C)c1cccc(C(C)C)c1NC(=O)CCCCCCCCCSc1nc2ccccc2s1 | 5 | 570 | 2.2 | 11
19 | Cc1ccc2nc(SCCCCCC(=O)Nc3c(C(C)C)cccc3C(C)C)oc2c1 | 34 | 400 | 3.2 | 110
20 | CC(C)c1cccc(C(C)C)c1NC(=O)CCCCCSc1nc2ncccc2o1 | 25 |  |  | 140
21 | CCCCCCCN(CCCCCSc1nc(-c2ccccc2)c(-c2ccccc2)[nH]1)C(=O)Nc1ccc(F)cc1F [LECIMIBIDE] | 36 | 820 |  | 20
22 | CC(C)c1cccc(C(C)C)c1NC(=O)CCCCCCCSc1nc2ccccc2[nH]1 | 18 | 30 | 1.7 | 
23 | CC(C)c1cccc(C(C)C)c1NC(=O)CCCCSc1nc2ccccc2s1 | 62 | 57000 | 2.1 | 130
24 | COC(=O)c1cccc2nc(SCCCCCC(=O)Nc3c(C(C)C)cccc3C(C)C)oc12 | 32 | 100 | 10.3 | 330
25 | CC(C)c1cccc(C(C)C)c1NC(=O)CCCCCSc1nc2c(C(=O)O)cccc2o1 |  | 11000 |  | 
26 | CC(C)c1cccc(C(C)C)c1NC(=O)CCCCCCCCCCCCCCSc1nc2ccccc2s1 | 88 | 1800 | 1.1 | 93
27 | CC(C)c1cccc(C(C)C)c1NC(=O)CCCSc1nc2ccccc2s1 | 28 |  | 3.6 | 100
28 | CC(C)c1cccc(C(C)C)c1NC(=O)CCCCCCCSc1nc2ccccc2o1 | 4 | 40 | 5.5 | 22

Reference: ChEMBL document CHEMBL4229418, “Design, synthesis and pharmacology of aortic-selective acyl-CoA: Cholesterol O-acyltransferase (ACAT/SOAT) inhibitors” (Bioorg Med Chem, 2018)
